What was measured:
[1] = molecular target: T1, human adenosine A2A receptor (Homo sapiens, UniProt P29274); test: [3H]-SCH-58261 binding assay on human adenosine A2A receptor membranes (SPA); conditions: recombinant receptor expressed in CHO cells, radioligand [3H]-SCH-58261 1 nM, Ki by Cheng-Prussoff equation from IC50; for Ki: read-out: hA2 (pKi) (converted)
T1 construct: expressed in transfected cells; host or cells: CHO cells, Semliki Forest virus expression system; washed membrane preparation
T1 sequence (P29274 whole entry): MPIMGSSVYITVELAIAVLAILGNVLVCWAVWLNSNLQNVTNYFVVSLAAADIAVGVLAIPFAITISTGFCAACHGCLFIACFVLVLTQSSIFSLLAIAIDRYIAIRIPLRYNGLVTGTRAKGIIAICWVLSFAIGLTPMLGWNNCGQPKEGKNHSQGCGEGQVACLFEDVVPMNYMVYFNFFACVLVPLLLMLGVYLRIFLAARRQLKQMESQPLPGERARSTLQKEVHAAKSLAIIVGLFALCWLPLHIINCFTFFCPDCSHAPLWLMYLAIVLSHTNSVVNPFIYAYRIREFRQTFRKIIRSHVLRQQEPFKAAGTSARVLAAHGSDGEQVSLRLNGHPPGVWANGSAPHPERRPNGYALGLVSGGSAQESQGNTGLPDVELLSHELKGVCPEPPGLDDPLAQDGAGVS
Protocol: Human Adenosine A2A Receptor
The human adenosine A2A receptor was recombinantly expressed in Chinese hamster ovary (CHO) cells using the semliki forest virus expression system. Cells were harvested, washed twice by centrifugation, homogenized and again washed by centrifugation. The final washed membrane pellet was suspended in a Tris (50 mM) buffer containing 120 mM NaCl, 5 mM KCl, 2 mM CaCl2 and 10 mM MgCl2 (pH 7.4) (buffer A). The [^3H]-SCH-58261 (Dionisotti et al., 1997, Br J Pharmacol 121, 353; 1 nM) binding assay was carried out in 96-well plates in the presence of 2.5 μg of membrane protein, 0.5 mg of Ysi-poly-1-lysine SPA beads and 0.1 U adenosine deaminase in a final volume of 200 μl of buffer A. Non-specific binding was defined using xanthine amine congener (XAC; 2 μM). Compounds were tested at 10 concentrations from 10 μM-0.3 nM. All assays were conducted in duplicate and repeated at least two times. Assay plates were incubated for 1 hour at room temperature before centrifugation and then bound ligand determined using a Packard Topcount scintillation counter. IC50 values were calculated using a non-linear curve fitting program and Ki values calculated using the Cheng-Prussoff equation.

SMILES	melting point [°C]	Ki [1] [nM]	hA2 (pKi) [1]
COc1ccc(N2CCOCC2)c2sc(NC(=O)C[C@H]3CC[C@@H](OC(C)=O)C3)nc12 (single isomer, unassigned) [Example 1, (cis)-2-(3-Acetoxy-cyclopentyl)-N-(4-methoxy-7-morpholin-4-yl-benzothiazol-2-yl)-acetamide]	171 to 172	10	–
COc1ccc(N2CCOCC2)c2sc(NC(=O)C[C@H]3CC[C@H](O)CC3)nc12 [Example 6, (trans)-2-(4-Hydroxy-cyclohexyl)-N-(4-methoxy-7-morpholin-4-yl-benzothiazol-2-yl)-acetamide]	190 to 192	3.16	–
COc1ccc(N2CCOCC2)c2sc(NC(=O)C[C@H]3CC[C@@H](O)C3)nc12 (single isomer, unassigned) [Example 4, (+)-(cis)-2-(3-Hydroxy-cyclopentyl)-N-(4-methoxy-7-morpholin-4-yl-benzothiazol-2-yl)-acetamide]	167 to 170	–	8.2
COc1ccc(N2CCOCC2)c2sc(NC(=O)C[C@H]3CC[C@@H](OC(C)=O)C3)nc12 (single isomer, unassigned) [Example 2, (cis)-2-(3-Acetoxy-cyclopentyl)-N-(4-methoxy-7-morpholin-4-yl-benzothiazol-2-yl)-acetamide]	172 to 173	6.31	–
COc1ccc(N2CCOCC2)c2sc(NC(=O)C[C@H]3CC[C@@H](O)CC3)nc12 [Example 5, (cis)-2-(4-Hydroxy-cyclohexyl)-N-(4-methoxy-7-morpholin-4-yl-benzothiazol-2-yl)-acetamide]	212 to 216	6.31	–

The remaining lines, values ahead:

melting point [°C]	Ki [1] [nM]	hA2 (pKi) [1]	SMILES
168 to 171	6.31	–	COc1ccc(N2CCOCC2)c2sc(NC(=O)C[C@H]3CC[C@@H](O)C3)nc12 (single isomer, unassigned) [Example 3, (−)-(cis)-2-(3-Hydroxy-cyclopentyl)-N-(4-methoxy-7-morpholin-4-yl-benzothiazol-2-yl)-acetamide]
195 to 197	20	–	COc1ccc(N2CCOCC2)c2sc(NC(=O)C(C)C34CCC(CC3)O4)nc12 (racemic) [Example 7, (rac)-N-(4-Methoxy-7-morpholin-4-yl-benzothiazol-2-yl)-2-(7-oxa-bicyclo[2.2.1]hept-1-yl)-propionamide]

Reference: US7449461B2, “Benzathiazol-acetamides” (Hoffmann-La Roche Inc., priority 2004, dated 2008)
